# Experimental data published in patent US20210251994A1, “INCREASING IMMUNE ACTIVITY THROUGH MODULATION OF POSTCELLULAR SIGNALING FACTORS” (FLAGSHIP PIONEERING INNOVATIONS V, INC., priority 2018, published 2021).
# “Also recorded” adds a separate entry of the source.
# Assays:
# [1] = tested on: RAS-expressing cells; details: knockdown studies; U.S. Pat. No. 8,546,421; cited from earlier work
# [2] = tested on: NFKB; assay: NFKB reporter activity in THP1-Dual monocytes co-cultured with treated A20 cells; format: cell-based, human; details: A20 cells treated 24 hours, then co-culture with THP1-Dual cells 24 hours; versus DMSO
# Procedure: A20 B-cell leukemia cells were treated with either control (DMSO) or various doses of RSL3, for 24 hours prior to co-culture with THP1-Dual cells for an additional 24 hours. RSL3 was purchased from Selleckchem (Houston, Tex.) and dissolved in DMSO. Subsequently, the THP1 supernatants were assessed for NFKB or IRF reporter activity.
# A20 cells were acquired from ATCC and THP1-Dual cells acquired from InvivoGen (San Diego, Calif.). Both cell types were cultured in 96-well plates for the duration of the assay. 50,000 A20 cells were plated 24 hours prior to dosing with RSL3, with a final DMSO concentration of 0.5%. 24 hours post-treatment, THP1-Dual cells (25,000 cells/well) were added to the A20 cells. 24 hours later, 30 μl of supernatant was mixed with either 200 μl QuantiBlue (InvivoGen, San Diego, Calif.) or 50 μl QuantiLuc and absorbance or luminescence was recorded on a Molecular Devices plate reader.
# A20 lymphoma cells were treated with various doses (e.g. 0.002, 0.005, 0.014, 0.041, 0.123, 0.370, 1.111, 3.333 and 10 μM) of a GPX4 inhibitor (RSL3, ML162 or ML210) in the presence or absence of 1 μM Ferrostatin-1 for 24 hours. ML162 was purchased from Cayman Chemical Company Inc and resuspended in DMSO. ML210 was purchased from Sigma-Aldrich and resuspended in DMSO. A20 lymphoma cells were also treated with DMSO as a negative control. After treatment with DMSO or a GPX4 inhibitor for 24 hours, the A20 lymphoma cells were co-cultured with THP1-Dual cells for an additional 24 hours. Subsequently, the THP1 supernatant was assessed for NFKB reporter activity. A20 cells were acquired from ATCC and THP1-Dual cells were acquired from InvivoGen (San Diego, Calif.). Both cell types were cultured in 96-well plates for the duration of the assay.
# [3] = tested on: Caki-1 renal cell carcinoma cells; assay: Viability of Caki-1 renal cell carcinoma cells after treatment; format: cell-based; details: various doses, 24 hours treatment
# Procedure: Caki-1 renal carcinoma cells were treated with either control (DMSO) or various doses (e.g. 0.002, 0.005, 0.014, 0.041, 0.123, 0.370, 1.111, 3.333 and 10 μM) of a GPX4 inhibitor (RSL3 or ML162) in the presence or absence of 1 μM Ferrostatin for 24 hours prior to co-culture with THP1-Dual cells for an additional 24 hours. […] Caki-1 cells were acquired from ATCC and THP1-Dual cells acquired from InvivoGen (San Diego, Calif.). Both cell types were cultured in 96-well plates for the duration of the assay.
# [4] = tested on: A20 lymphoma cells; assay: Viability of A20 B-cell leukemia / lymphoma cells after treatment; format: cell-based; details: various doses, 24 hours treatment
# [5] = tested on: Jurkat T cell leukemia cells; assay: Viability of Jurkat T cell leukemia cells after treatment; format: cell-based; details: various doses, 24 hours treatment
# [6] = tested on: NFKB; assay: NFKB reporter activity in THP1-Dual monocytes co-cultured with treated Caki-1 cells; format: cell-based, human; details: Caki-1 cells treated 24 hours, then co-culture with THP1-Dual cells 24 hours; versus DMSO
# Procedure: Caki-1 renal cell carcinoma cells were treated with either control (DMSO) or various doses of Erastin, for 24 hours prior to co-culture with THP1-Dual cells for an additional 24 hours. Erastin was purchased from Selleckchem (Houston, Tex.) and dissolved in DMSO. Subsequently, the THP1 supernatants were assessed for NFKB or IRF reporter activity.
# Caki-1 cells were acquired from ATCC and THP1-Dual cells acquired from InvivoGen (San Diego, Calif.). Both cell types were cultured in 96-well plates for the duration of the assay. 7,500 Caki-1 cells were plated 24 hours prior to dosing with Erastin, with a final DMSO concentration of 0.5%. 24 hours post-treatment, THP1-Dual cells (25,000 cells/well) were added to the Caki-1 cells. 24 hours later, 30 μl of supernatant was mixed with either 200 μl QuantiBlue (InvivoGen) or 50 μl QuantiLuc and absorbance or luminescence was recorded on a Molecular Devices plate reader.
# Caki-1 renal cell carcinoma cells were treated with either control (DMSO) or various doses of RSL3, for 24 hours prior to co-culture with THP1-Dual cells for an additional 24 hours. RSL3 was purchased from Selleckchem and dissolved in DMSO. Subsequently, the THP1 supernatants were assessed for NFKB or IRF reporter activity.
# Caki-1 cells were acquired from ATCC and THP1-Dual cells acquired from InvivoGen (San Diego, Calif.). Both cell types were cultured in 96-well plates for the duration of the assay. 7,500 Caki-1 cells were plated 24 hours prior to dosing with RSL3, with a final DMSO concentration of 0.5%. 24 hours post-treatment, THP1-Dual cells (25,000 cells/well) were added to the Caki-1 cells. 24 hours later, 30 μl of supernatant was mixed with either 200 μl QuantiBlue (InvivoGen, San Diego, Calif.) or 50 μl QuantiLuc and absorbance or luminescence was recorded on a Molecular Devices plate reader.
# Caki-1 renal carcinoma cells were treated with either control (DMSO) or various doses (e.g. 0.002, 0.005, 0.014, 0.041, 0.123, 0.370, 1.111, 3.333 and 10 μM) of a GPX4 inhibitor (RSL3 or ML162) in the presence or absence of 1 μM Ferrostatin for 24 hours prior to co-culture with THP1-Dual cells for an additional 24 hours. Subsequently, the THP1 supernatant was assessed for NFKB reporter activity. Caki-1 cells were acquired from ATCC and THP1-Dual cells acquired from InvivoGen (San Diego, Calif.). Both cell types were cultured in 96-well plates for the duration of the assay.
# [7] = tested on: NFKB; assay: NFKB reporter activity in THP1-Dual monocytes co-cultured with treated Jurkat cells; format: cell-based, human; details: Jurkat cells treated 24 hours, then co-culture with THP1-Dual cells 24 hours; versus DMSO
# Procedure: Jurkat T cell leukemia cells were treated with either control (DMSO) or various doses of RSL3, for 24 hours prior to co-culture with THP1-Dual cells for an additional 24 hours. RSL3 was purchased from Selleckchem (Houston, Tex.) and dissolved in DMSO. Subsequently, the THP1 supernatants were assessed for NFKB or IRF reporter activity.
# Jurkat cells were acquired from ATCC and THP1-Dual cells acquired from InvivoGen (San Diego, Calif.). Both cell types were cultured in 96-well plates for the duration of the assay. 100,000 Jurkat cells were plated 24 hours prior to dosing with RSL3, with a final DMSO concentration of 0.5%. 24 hours post-treatment, THP1-Dual cells (25,000 cells/well) were added to the Jurkat cells. 24 hours later, 30 μl of supernatant was mixed with either 200 μl QuantiBlue (InvivoGen, San Diego, Calif.) or 50 μl QuantiLuc and absorbance or luminescence was recorded on a Molecular Devices plate reader.
# [8] = tested on: IRF; assay: IRF reporter activity in THP1-Dual monocytes co-cultured with treated A20 cells; format: cell-based, human; details: A20 cells treated 24 hours, then co-culture with THP1-Dual cells 24 hours; versus DMSO
# Procedure: A20 B-cell leukemia cells were treated with either control (DMSO) or various doses of RSL3, for 24 hours prior to co-culture with THP1-Dual cells for an additional 24 hours. RSL3 was purchased from Selleckchem (Houston, Tex.) and dissolved in DMSO. Subsequently, the THP1 supernatants were assessed for NFKB or IRF reporter activity. A20 cells were acquired from ATCC and THP1-Dual cells acquired from InvivoGen (San Diego, Calif.). Both cell types were cultured in 96-well plates for the duration of the assay. 50,000 A20 cells were plated 24 hours prior to dosing with RSL3, with a final DMSO concentration of 0.5%. 24 hours post-treatment, THP1-Dual cells (25,000 cells/well) were added to the A20 cells. 24 hours later, 30 μl of supernatant was mixed with either 200 μl QuantiBlue (InvivoGen, San Diego, Calif.) or 50 μl QuantiLuc and absorbance or luminescence was recorded on a Molecular Devices plate reader.
compound,measurement,setting,value
COC(=O)c1ccc([C@H]2c3[nH]c4ccccc4c3C[C@H](C(=O)OC)N2C(=O)CCl)cc1 [RSL3],death of RAS-expressing cells,[1],selectively mediated the death of RAS-expressing cells
same,lipid ROS accumulation,[1],increasing lipid ROS accumulation
same,NFKB signaling/activity in THP1 monocytes,[2],elicited; also recorded: increased NFKB activity in THP1 cells in a dose dependent manner
same,viability of Caki-1 cells,[3],negatively affected the viability; also recorded: decreased viability of the cells in a dose dependent manner
same,viability of A20 cells,[4],negatively affected the viability; also recorded: decreased viability of the cells in a dose dependent manner
same,viability of Jurkat T cell leukemia cells,[5],negatively affected the viability
same,NFKB signaling/activity in THP1 monocytes,[6],elicited NFKB signaling; also recorded: increased NFKB activity in THP1 cells in a dose dependent manner
same,NFKB signaling in THP1 monocytes,[7],elicited NFKB signaling
same,IRF signaling in THP1 monocytes,[8],elicited
